Assay results as given in US20250296917A1, “SPIRO-CYCLIC AMINE DERIVATIVES AS S1P MODULATORS” (AbbVie Deutschland GmbH & Co. KG, priority 2020, published 2025).

Columns and labels:
Format in all cases: cell-based
[1] = biological target: hS1PR2 (recombinant human S1P2 receptor) (Homo sapiens, UniProt O95136); experiment: hS1PR2 agonist aequorin luminescence assay (Euroscreen/Eurofins); settings: agonism, cells co-expressing apoaequorin, human Gα16 and S1P2 receptor; read-out: hS1PR2 pEC50 (converted)
Method: Efficacy testing for hS1PR2 was performed at Euroscreen, Eurofins, France. Cells co-expressing mitochondrial Apoaequorin, recombinant human Gα16 and S1P2 receptor (FAST-0198A) grown to mid-log phase in culture media without antibiotics were detached with PBS-EDTA, centrifuged and resuspended in assay buffer (DMEM/HAM's F12 with HEPES, without phenol red+0.1 fatty acid free BSA) at a concentration of 1×10^6 cells/ml. Cells were incubated at room temperature for at least 4 h with coelenterazine. The reference agonists S1P and […] were tested to evaluate the performance of the assay on each day of the test and determine the EC50. For agonist testing, cell suspension was mixed 1:1 with test or reference agonist in 384-well plate. The resulting emission of light was recorded using a Hamamatsu Functional Drug Screening System 6000 (FDSS) luminometer. On each day of experimentation, reference compounds were tested at several concentrations to obtain a dose-response curve and an estimated EC50 value. Reference values thus obtained for the test were compared to historical values obtained from the same receptor and used to validate the experimental session.

human S1PR3 = biological target: T1, human S1PR3 (Homo sapiens, UniProt Q99500); experiment: Intracellular Ca2+ release agonist assay (Calcium 5 FLIPR), CHO-K1 cells expressing human S1PR3; settings: agonism, recombinant CHO-K1 cells with aequorin and Gq/i5; read-out: hS1PR3 pEC50 (converted)
T1 construct: host or cells: CHO-K1
Method: (§1) Agonist potency and efficacy were assessed by measurement of intracellular […] release. Recombinant CHO-K1 cells (Euroscreen, Brussels, Belgium) expressing human S1PR5, S1PR1, S1PR3 or S1PR4 receptors, aequorin, and GTP binding protein Gq/i5 were cultured using a medium containing nutrient mixture F-12 Ham (Sigma-Aldrich) supplemented with 10% FBS, 100 µg/mL gentamicin and equilibrated at 5% C02. 15.000 cells in […] medium were seeded into Biocoat poly-D-Lysine coated 384 well plates (Becton Dickinson #35-6663) and grown to ˜95% confluency after 24 h. Culture medium was replaced by an assay buffer consisting of HBBS with Ca2+ and Mg2+ (Invitrogen #14025-050), 20 mmol/L Hepes (Sigma-Aldrich #H-3375), 2.5 mmol/L probenecid (Sigma-Aldrich #P-8761, and 0.1% BSA (Sigma-Aldrich #A-7030) pH 7.4. The Calcium 5 no-wash FLIPR assay kit (Molecular Devices #5000625) was performed as described in the kit instructions. Cells were incubated with Calcium 5 dye for 1 h at 37° C., 5% CO2 in the dark. After 45 min adaptation to RT assessment of agonist stimulation of intracellular Ca2+ release was performed by addition of test compounds at various concentrations obtained by serial dilution. Phospho-fingolimod was used as positive control and reference agonist (intrinsic activity 100%).

human S1PR1 = biological target: T2, human S1PR1 (Homo sapiens, UniProt P21453); experiment: Intracellular Ca2+ release agonist assay (Calcium 5 FLIPR), CHO-K1 cells expressing human S1PR1; settings: agonism, recombinant CHO-K1 cells with aequorin and Gq/i5; read-out: hS1PR1 pEC50 (converted)
T2 construct: host or cells: CHO-K1
Method: as §1

Measured: EC50

Chain of hS1PR2 (recombinant human S1P2 receptor) (O95136 whole entry): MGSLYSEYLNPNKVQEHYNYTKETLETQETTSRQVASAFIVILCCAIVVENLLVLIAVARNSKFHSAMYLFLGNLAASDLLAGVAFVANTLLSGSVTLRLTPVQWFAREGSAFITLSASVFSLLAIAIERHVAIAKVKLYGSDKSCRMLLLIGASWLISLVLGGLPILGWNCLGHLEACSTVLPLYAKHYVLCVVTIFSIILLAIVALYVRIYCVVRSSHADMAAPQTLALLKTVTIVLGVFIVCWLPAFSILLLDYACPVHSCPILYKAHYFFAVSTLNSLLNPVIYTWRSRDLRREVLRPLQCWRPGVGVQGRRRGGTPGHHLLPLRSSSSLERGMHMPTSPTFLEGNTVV
T1 sequence (Q99500 whole entry): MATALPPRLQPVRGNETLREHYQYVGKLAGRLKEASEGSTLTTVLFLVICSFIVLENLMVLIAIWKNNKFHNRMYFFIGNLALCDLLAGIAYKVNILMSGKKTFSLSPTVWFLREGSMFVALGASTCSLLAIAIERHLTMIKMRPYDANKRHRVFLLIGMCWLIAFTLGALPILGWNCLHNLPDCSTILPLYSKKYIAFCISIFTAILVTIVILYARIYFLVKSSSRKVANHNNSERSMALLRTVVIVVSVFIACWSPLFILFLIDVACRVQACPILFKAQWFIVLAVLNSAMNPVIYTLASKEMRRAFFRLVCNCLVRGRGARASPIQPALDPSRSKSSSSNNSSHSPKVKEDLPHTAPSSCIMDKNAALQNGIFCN
T2 sequence (P21453 whole entry): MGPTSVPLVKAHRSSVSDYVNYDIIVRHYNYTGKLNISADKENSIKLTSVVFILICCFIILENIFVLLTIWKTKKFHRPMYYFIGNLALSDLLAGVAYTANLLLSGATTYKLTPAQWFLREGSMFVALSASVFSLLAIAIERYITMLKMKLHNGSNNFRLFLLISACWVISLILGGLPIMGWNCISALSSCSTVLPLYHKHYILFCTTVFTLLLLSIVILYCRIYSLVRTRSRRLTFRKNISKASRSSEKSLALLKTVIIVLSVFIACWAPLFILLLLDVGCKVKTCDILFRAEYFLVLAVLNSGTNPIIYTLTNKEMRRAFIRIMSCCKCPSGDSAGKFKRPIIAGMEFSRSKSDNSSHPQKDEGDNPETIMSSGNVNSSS

CCc1cccc(Cl)c1COc1ccc2c(c1)CC[C@@]21CN(CCC(=O)O)CCO1 [Compound 1a, (S)-3-(5-((2-chloro-6-ethylbenzyl)oxy)-2,3-dihydrospiro[indene-1,2′-morpholin]-4′-yl)propanoic acid]
< 5.01 µM: all assays above
